The record followed here is publication doi:10.1101/2024.12.02.625520, “Identification of Inhibitors of Chikungunya virus nsP2 ATPase” (bioRxiv, 2025).

Converted amounts (≈) assume the structure as drawn. Read-outs that look alike come from different tables or passages of the source. Where only a bound is given, the exact number is not on record here.

Data set [1] addresses T1, CHIKV nsP2 ATPase (Chikungunya virus, UniProt Q8JUX6). The data set can be described thus: Secondary CHIKV nsP2 ATPase assay (ADP-Glo). The note with it: for Hill slope: ADP-Glo dose response.
Data set [2] addresses T1, CHIKV nsP2 ATPase. Description: High throughput nsP2 ATPase activity assay (Malachite Green).
The nature of data set [3]: Kinetic solubility. To be noted: kinetic from dmso stock.
The mark [4] stands for this setting: read-out: Malachite Green % INHIBITION (ORIGINAL).
The mark [5] stands for this setting: read-out: Malachite Green % INHIBITION (RESCREEN).
Where [6] appears, read: read-out: ADP-Glo IC50, Avge n=2, 1 nM CHIKV nsP2fl, 30 μM ATP, 30 min pre-incubation.

T1 sequence (Q8JUX6 536-1333): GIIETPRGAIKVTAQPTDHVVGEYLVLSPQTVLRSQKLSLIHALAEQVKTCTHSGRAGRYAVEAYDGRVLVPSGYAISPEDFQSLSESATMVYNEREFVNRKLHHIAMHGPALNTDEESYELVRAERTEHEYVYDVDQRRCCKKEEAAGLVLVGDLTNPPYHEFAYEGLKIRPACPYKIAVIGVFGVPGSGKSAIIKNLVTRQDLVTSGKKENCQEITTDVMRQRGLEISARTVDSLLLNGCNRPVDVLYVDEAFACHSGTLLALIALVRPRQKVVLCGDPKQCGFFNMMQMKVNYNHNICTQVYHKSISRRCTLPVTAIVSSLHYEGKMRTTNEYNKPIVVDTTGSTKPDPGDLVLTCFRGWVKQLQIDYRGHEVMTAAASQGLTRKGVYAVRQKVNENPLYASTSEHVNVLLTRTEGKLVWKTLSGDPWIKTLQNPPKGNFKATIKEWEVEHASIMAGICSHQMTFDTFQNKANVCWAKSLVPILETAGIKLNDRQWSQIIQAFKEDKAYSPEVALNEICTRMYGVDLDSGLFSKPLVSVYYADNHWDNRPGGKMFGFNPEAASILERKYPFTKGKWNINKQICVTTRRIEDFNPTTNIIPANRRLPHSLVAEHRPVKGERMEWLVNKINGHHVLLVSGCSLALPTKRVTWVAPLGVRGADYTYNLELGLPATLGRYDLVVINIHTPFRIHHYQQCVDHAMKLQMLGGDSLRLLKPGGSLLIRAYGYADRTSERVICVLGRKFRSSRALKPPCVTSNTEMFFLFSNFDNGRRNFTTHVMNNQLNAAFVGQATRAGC

With `O=c1c(O)c(-c2ccc(O)c(O)c2)oc2cc(O)cc(O)c12` [RA-0001795], half-maximal inhibition in data set [1] (IC50) was put at 26.7 µM. In data set [1] (Avge n=2), this compound displayed a Hill slope of 0.7. In addition, the values for the inhibition at 25 µM in data set [2] (setting [4]) and in data set [2] (setting [5]) were 62% and 55%, respectively.
For `O=C(CN1C(=O)C2C3CCC(C3)C2C1=O)OCC(=O)c1ccc(Cl)cc1` (stereo not shown) [RA-0001796] the same measures were 19.9 µM, 0.6, 60% and 55%.
In data set [1] (Avge n=2), `COc1ccc(OC)c(N2C(=O)/C(=C/c3ccco3)C(=O)NC2=S)c1` [RA-0001798] gave a Hill slope of 1.4. Also, the IC50 in data set [1] (setting [6]) is 3.8 µM; in data set [1] (read-out: ADP-Glo IC50, Avge n=2, 1 nM CHIKV nsP2fl, 30 μM ATP, 30 min pre-incubation, listed as 1798), under 10 µM. Moreover, the inhibition at 25 µM in data set [2] (setting [4]) is 79%; in data set [2] (setting [5]) it was 74%.
In turn, `Cc1ccc(N2C(=O)/C(=C/C=C/c3ccco3)C(=O)NC2=S)cc1` [RA-0001799] registered a Hill slope in data set [1] (Avge n=2) of 2.8. The figures for the inhibition at 25 µM in data set [2] (setting [4]) and in data set [2] (setting [5]) were 85% and 64%, respectively.
Compound `CCCC(C(=O)O)N1C(=O)/C(=C/c2ccc(-c3ccc(Br)cc3)o2)SC1=S` (stereo not shown) [RA-0001801] gave a Hill slope in data set [1] (Avge n=2) of 1.4. Besides, in data set [1] (setting [6]), the IC50 stood at 12.8 µM. The values for the inhibition at 25 µM in data set [2] (setting [4]) and in data set [2] (setting [5]) were 62% and 55%, respectively.
Regarding `O=C1c2oc3ccccc3c(=O)c2C(c2ccc(O)cc2)N1Cc1ccccc1Cl` (stereo not shown) [RA-0001802], in data set [1], inhibition was half-maximal at 14.8 µM (IC50). Further, the Hill slope in data set [1] (Avge n=2) is listed as 1. The inhibition at 25 µM in data set [2] (setting [4]) was found to be 37%; in data set [2] (setting [5]), 51%.
`Cc1cccc(CSc2nsc(SCc3cccc(C)c3)c2C#N)c1` [RA-0001803]: the inhibition at 25 µM is 57% in data set [2] (setting [4]) and 61% in data set [2] (setting [5]).
The compound `N#Cc1c(SCc2ccccc2Cl)nsc1SCc1ccccc1Cl` [RA-0001804] returned a Hill slope in data set [1] (Avge n=2) of 2.35. Also, the inhibition at 25 µM in data set [2] (setting [4]) came to 53%; in data set [2] (setting [5]) it was 64%.
In the case of `N#Cc1c(SCc2cccc(F)c2)nsc1SCc1cccc(F)c1` [RA-0001805], the inhibition at 25 µM in data set [2] (setting [4]) amounted to 33%; in data set [2] (setting [5]), 51%.
For `Cc1ccc(CSc2nsc(SCc3ccc(C)cc3)c2C#N)cc1` [RA-0001806], in that order: 45% and 53%.
In turn, `N#Cc1c(SCc2ccccc2)cc(SCc2ccccc2)cc1SCc1ccccc1` [RA-0001807] returned a Hill slope in data set [1] (Avge n=2) of 2. Further, the inhibition at 25 µM in data set [2] (setting [4]) amounted to 45%; in data set [2] (setting [5]) it was 60%.
`Cc1c(Cl)ccc2c1NC(C(=O)O)C1CC=CC21` (stereo not shown) [RA-0001808]: the inhibition at 25 µM in data set [2] (setting [4]) was 63%; in data set [2] (setting [5]), 69%.
For `Brc1ccc(-c2csc(N3CCc4ccccc4C3)n2)cc1` [RA-0001809], in that order: 58% and 60%.
For `CC1SC2(C(=O)Nc3ccccc32)N(CCc2c[nH]c3ccccc23)C1=O` (stereo not shown) [RA-0001810], the IC50 in data set [1] was 27.5 µM. The same compound came in with a Hill slope in data set [1] (Avge n=2) of 2.65. For the same compound, the inhibition at 25 µM in data set [2] (setting [4]) was found to be 58%; in data set [2] (setting [5]), 76%.
Turning to `Fc1cccc(Cl)c1Cn1cccc1C1=NC(CSCc2ccccc2)CO1` (stereo not shown) [RA-0001811], the inhibition at 25 µM in data set [2] (setting [4]) was 46%; in data set [2] (setting [5]), 56%.
For `CSc1ccc(Cn2cccc2C2=NC(CSCc3ccc(F)cc3)CO2)cc1` (stereo not shown) [RA-0001812] the same measures were 48% and 53%.
For `Clc1ccccc1CSC1=NC2(CCCCC2)Nc2ccccc21` [RA-0001813] the same measures were 66% and 81%.
For `Clc1cccc(CSC2=NC3(CCCCC3)Nc3ccccc32)c1` [RA-0001814], in that order: 73% and 54%.
With `Fc1cccc(CSC2=NC3(CCCCC3)Nc3ccccc32)c1` [RA-0001815], the inhibition at 25 µM came out at 81% in data set [2] (setting [4]) and 77% in data set [2] (setting [5]).
In turn, `O=C(C1CCCN(c2ccc(Sc3ccc(Br)cc3)nn2)C1)N1CCSCC1` (stereo not shown) [RA-0001816] displayed a Hill slope in data set [1] (Avge n=2) of 1.2. Further, the 50% inhibitory concentration (IC50) in data set [1] (setting [6]) turned out to be 7.2 µM. Further, the results for the inhibition at 25 µM in data set [2] (setting [4]) and in data set [2] (setting [5]) were 67% and 71%, respectively.
For `CN(Cc1ccco1)c1nc(-c2ccc(Cl)cc2)nc2ccccc12` [RA-0001817], the figures for the inhibition at 25 µM in data set [2] (setting [4]) and in data set [2] (setting [5]) were 49% and 56%, respectively.
As for `O=C(CSc1nnc2c(=O)n(-c3cccc(F)c3)ccn12)c1c[nH]c2ccccc12` [RA-0001818], the inhibition at 25 µM in data set [2] (setting [4]) was 50%; in data set [2] (setting [5]), 145%.
In data set [3], `COc1cc(Cl)c(NS(=O)(=O)c2c(C)sc(C)c2-c2[nH]nc(C)c2C)c(OC)c1` [RA-0001819] gave a kinetic solubility of 12.5 µM (≈ 5.7 µg/mL). Also, in data set [1], the IC50 amounted to 0.6 µM. Also, in data set [1] (Avge n=2), the Hill slope is listed as 0.7. The values for the inhibition at 25 µM in data set [2] (setting [4]) and in data set [2] (setting [5]) were 66% and 72%, respectively.
As to `O=c1cc(-c2ccc(O)c(O)c2)oc2cc(O)cc(O)c12` [RA-0001820], the inhibition at 25 µM in data set [2] (setting [4]) turned out to be 60%; in data set [2] (setting [5]), 62%.
Compound `Cc1ccnc(OC2CCOC3(CCN(C(=O)C4(c5ccccc5)CCCC4)CC3)C2)c1` (stereo not shown) [RA-0001821] registered a solubility (kinetic) in data set [3] of 14.2 µM (≈ 6.17 µg/mL). In data set [1] (Avge n=2), this compound displayed a Hill slope of 1.25. Besides, in data set [1] (setting [6]), the IC50 was 4 µM. The inhibition at 25 µM in data set [2] (setting [4]) came to 70%; in data set [2] (setting [5]), 65%.
With `CS(=O)(=O)NCC1CCOC2(CCN(C(=O)C3(c4ccccc4)CCCC3)CC2)C1` (stereo not shown) [RA-0001822], the solubility (kinetic) in data set [3] stood at 236 µM (≈ 103 µg/mL). The half-inhibitory concentration (IC50) in data set [1] amounted to 2.3 µM. Further, the Hill slope in data set [1] (Avge n=2) is 0.85. In addition, the inhibition at 25 µM in data set [2] (setting [4]) came out at 84%; in data set [2] (setting [5]), 81%.
`Cc1nc(CC2CCOC3(CCN(C(=O)C4(c5ccccc5)CCCC4)CC3)C2)no1` (stereo not shown) [RA-0001823]: the kinetic solubility in data set [3] worked out at 202 µM (≈ 85.6 µg/mL). The compound also registered a 50% inhibitory concentration (IC50) in data set [1] of 1.5 µM. The compound further gave a Hill slope in data set [1] (Avge n=2) of 0.87. The inhibition at 25 µM in data set [2] (setting [4]) is 78%; in data set [2] (setting [5]) it was 82%.
`Cc1ncc2c(n1)COC21CN(C(=O)C2(c3ccccc3)CCCC2)C1` [RA-0001824]: half-maximal inhibition in data set [1] (IC50) was put at 5.6 µM. Besides, the Hill slope in data set [1] (Avge n=2) was 0.43. Further, the inhibition at 25 µM amounted to 79% in data set [2] (setting [4]) and 69% in data set [2] (setting [5]).

In general, IC50 refers to the midpoint of a concentration-inhibition curve. For orientation: Hill slope means a measure of the steepness of the concentration-response curve. As usually defined, the inhibition is the drop in the measured response relative to a control, in per cent. As usually defined, the solubility (kinetic) is solubility judged after dilution from a stock solution rather than from solid.
